Experimental data as given in ChEMBL document CHEMBL3792360, “Antibacterial activity of Mannich bases derived from 2-naphthols, aromatic aldehydes and secondary aliphatic amines” (2016).
Values after ≈ are worked out from the molar mass of the structure shown.

What was measured:
Assay type in all cases: functional
[1] = tested on: Escherichia coli; assay: Antibacterial activity against Escherichia coli ATCC 25922 after 16 to 20 hrs by broth microdilution method
[2] = tested on: Escherichia coli; assay: Antibacterial activity against Escherichia coli ATCC 35218 after 16 to 20 hrs by broth microdilution method
[3] = tested on: Staphylococcus aureus; assay: Antibacterial activity against methicillin-resistant Staphylococcus aureus ATCC 43300 after 16 to 20 hrs by broth microdilution method
[4] = tested on: Staphylococcus aureus; assay: Antibacterial activity against Staphylococcus aureus […] after 16 to 20 hrs by broth microdilution method
[5] = tested on: Pseudomonas aeruginosa; assay: Antibacterial activity against Pseudomonas aeruginosa CIP 82118 after 16 to 20 hrs by broth microdilution method
[6] = tested on: Enterobacter cloacae; assay: Antibacterial activity against Enterobacter cloacae CIP 103475 after 16 to 20 hrs by broth microdilution method
[7] = tested on: Proteus vulgaris; assay: Antibacterial activity against Proteus vulgaris CIP 104989 after 16 to 20 hrs by broth microdilution method
[8] = tested on: Citrobacter freundii; assay: Antibacterial activity against Citrobacter freundii CIP 5732 after 16 to 20 hrs by broth microdilution method
[9] = tested on: Klebsiella pneumoniae; assay: Antibacterial activity against Klebsiella pneumoniae CIP 53153 after 16 to 20 hrs by broth microdilution method
[10] = tested on: Enterococcus faecalis; assay: Antibacterial activity against Enterococcus faecalis ATCC 25912 after 16 to 20 hrs by broth microdilution method

Row | Compound | MIC [1] | MIC [2] | MIC [3] | MIC [4] | MIC [5] | MIC [6] | MIC [7] | MIC [8] | MIC [9] | MIC [10]
1 | COc1ccc2ccc(O)c(C(c3ccccc3)N3CCC(C)CC3)c2c1 (stereo not given) | > 512 µg/mL | > 512 µg/mL | > 512 µg/mL | 8 µg/mL (≈ 22.1 µM) | > 512 µg/mL | > 512 µg/mL | > 512 µg/mL | > 512 µg/mL | > 512 µg/mL | > 512 µg/mL
2 | Oc1ccc2cc(Br)ccc2c1C(c1ccccc1)N1CCCCC1 (stereo not given) | > 512 µg/mL | > 512 µg/mL | > 512 µg/mL | > 512 µg/mL | > 512 µg/mL | > 512 µg/mL | > 512 µg/mL | > 512 µg/mL | > 512 µg/mL | > 512 µg/mL
3 | Oc1ccc2cc(Br)ccc2c1C(c1cccc(Cl)c1)N1CCCCC1 (stereo not given) | > 512 µg/mL | > 512 µg/mL | > 512 µg/mL | 8 µg/mL (≈ 18.6 µM) | > 512 µg/mL | > 512 µg/mL | > 512 µg/mL | > 512 µg/mL | > 512 µg/mL | > 512 µg/mL
4 | COc1ccc2ccc(O)c(C(c3ccccc3)N3CCCCC3)c2c1 (stereo not given) | > 512 µg/mL | > 512 µg/mL | > 512 µg/mL | > 512 µg/mL | > 512 µg/mL | > 512 µg/mL | > 512 µg/mL | > 512 µg/mL | > 512 µg/mL | > 512 µg/mL
5 | CC1CCN(C(c2cccc3ccccc23)c2c(O)ccc3ccccc23)CC1 (stereo not given) | > 512 µg/mL | > 512 µg/mL | > 512 µg/mL | > 512 µg/mL | > 512 µg/mL | > 512 µg/mL | > 512 µg/mL | > 512 µg/mL | > 512 µg/mL | > 512 µg/mL
6 | Oc1ccc2ccccc2c1C(c1cccs1)N1CCOCC1 (stereo not given) | > 512 µg/mL | > 512 µg/mL | 32 µg/mL (≈ 98.3 µM) | 32 µg/mL (≈ 98.3 µM) | > 512 µg/mL | > 512 µg/mL | > 512 µg/mL | > 512 µg/mL | > 512 µg/mL | 32 µg/mL (≈ 98.3 µM)
7 | CC1CCN(C(c2cccc3ccccc23)c2c(O)ccc3cc(Br)ccc23)CC1 (stereo not given) | > 512 µg/mL | > 512 µg/mL | > 512 µg/mL | > 512 µg/mL | > 512 µg/mL | > 512 µg/mL | > 512 µg/mL | > 512 µg/mL | > 512 µg/mL | > 512 µg/mL
8 | CC1CCN(C(c2ccccc2)c2c(O)ccc3cc(Br)ccc23)CC1 (stereo not given) | > 512 µg/mL | > 512 µg/mL | > 512 µg/mL | > 512 µg/mL | > 512 µg/mL | > 512 µg/mL | > 512 µg/mL | > 512 µg/mL | > 512 µg/mL | > 512 µg/mL
9 | CN(C)C(c1cccs1)c1c(O)ccc2ccccc12 (stereo not given) | > 512 µg/mL | > 512 µg/mL | 16 µg/mL (≈ 56.5 µM) | 16 µg/mL (≈ 56.5 µM) | > 512 µg/mL | > 512 µg/mL | 128 µg/mL (≈ 452 µM) | > 512 µg/mL | > 512 µg/mL | 16 µg/mL (≈ 56.5 µM)
10 | Oc1ccc2ccccc2c1C(c1cccs1)N1CCN(c2ccccc2)CC1 (stereo not given) | > 512 µg/mL | > 512 µg/mL | 16 µg/mL (≈ 39.9 µM) | 64 µg/mL (≈ 160 µM) | > 512 µg/mL | > 512 µg/mL | > 512 µg/mL | > 512 µg/mL | > 512 µg/mL | > 512 µg/mL
11 | CC1CCN(C(c2ccccc2)c2c(O)ccc3ccccc23)CC1 (stereo not given) | > 512 µg/mL | > 512 µg/mL | > 512 µg/mL | > 512 µg/mL | > 512 µg/mL | > 512 µg/mL | > 512 µg/mL | > 512 µg/mL | > 512 µg/mL | > 512 µg/mL
12 | Oc1ccc2ccccc2c1C(c1ccc(F)cc1)N1CCCCC1 (stereo not given) | > 512 µg/mL | > 512 µg/mL | > 512 µg/mL | 8 µg/mL (≈ 23.9 µM) | > 512 µg/mL | > 512 µg/mL | > 512 µg/mL | > 512 µg/mL | > 512 µg/mL | > 512 µg/mL
13 | Oc1ccc2ccccc2c1C(c1ccccc1)N1CCCCC1 (stereo not given) | > 512 µg/mL | > 512 µg/mL | > 512 µg/mL | 8 µg/mL (≈ 25.2 µM) | > 512 µg/mL | > 512 µg/mL | > 512 µg/mL | > 512 µg/mL | > 512 µg/mL | > 512 µg/mL
14 | Oc1ccc2cc(Br)ccc2c1C(c1cccc2ccccc12)N1CCCCC1 (stereo not given) | > 512 µg/mL | > 512 µg/mL | > 512 µg/mL | > 512 µg/mL | > 512 µg/mL | > 512 µg/mL | > 512 µg/mL | > 512 µg/mL | > 512 µg/mL | > 512 µg/mL
15 | COc1ccc2ccc(O)c(C(c3cccs3)N3CCC(C)CC3)c2c1 (stereo not given) | > 512 µg/mL | > 512 µg/mL | 16 µg/mL (≈ 43.5 µM) | 16 µg/mL (≈ 43.5 µM) | > 512 µg/mL | > 512 µg/mL | > 512 µg/mL | > 512 µg/mL | > 512 µg/mL | 64 µg/mL (≈ 174 µM)
16 | Cc1cc(C)cc(C(c2c(O)ccc3ccccc23)N2CCCCC2)c1 (stereo not given) | > 512 µg/mL | > 512 µg/mL | > 512 µg/mL | 4 µg/mL (≈ 11.6 µM) | > 512 µg/mL | > 512 µg/mL | > 512 µg/mL | > 512 µg/mL | > 512 µg/mL | > 512 µg/mL
